The source made the active and inactive calls.
Legend:
[1] = Luminescence Cell-Based Dose HTS Response to Identify Inhibitors of 5'UTR Stem-Loop Driven Prion Protein mRNA Translation in H4-C Neuroglioblastoma Cells. [Related pubchem assays (depositor defined):AID1814, AID1827]; format: functional
[2] = Luminescence Cell-Based Dose Response HTS to Identify Activators of Luciferase Translation or Activity in H4-C Neuroglioblastoma Cells. [Related pubchem assays: 1829 (Project Summary), 1814 (Primary HTS)]; format: functional
[3] = Luminescence Cell-Based Dose Confirmation HTS to Identify Inhibitors of 5'UTR Stem-Loop Driven Alpha-Synuclein mRNA Translation in H4 Neuroglioblastoma Cells. [Related pubchem assays: 1827 (Project Summary), 1813 (Primary HTS)]; format: functional
[4] = Luminescence Cell-Based Dose Response HTS to Identify Activators of 5'UTR Stem-Loop Driven Prion Protein mRNA Translation in H4-C Neuroglioblastoma Cells. [Related pubchem assays: 1829 (Project Summary), 1814 (Primary HTS)]; format: functional
[5] = Luminescence Cell-Based Dose Response HTS to Identify Inhibitors of Luciferase Translation or Activity in H4-C Neuroglioblastoma Cells. [Related pubchem assays: 1813 (Primary HTS), 1827 (Project Summary)]; format: functional
[6] = Luminescence Cell-Based Dose Retest to Confirm Activators of 5'UTR Stem-Loop Driven Alpha-Synuclein mRNA Translation in H4 Neuroglioblastoma Cells. [Related pubchem assays (depositor defined):AID1813, AID1829]; format: functional
Ion channel NompC = Ion channel NompC (Danio rerio, UniProt Q7T1G6); experiment: Dose response cell-based high-throughput screening assay for agonists of the transient receptor potential channel N1 (TRPN1). [Related pubchem assays (depositor defined):AID1424, AID1448]; format: functional
Mucolipin-3 = Mucolipin-3 (Homo sapiens, UniProt Q8TDD5); experiment: Fluorescence counterscreen assay for […] agonists: dose response cell-based high-throughput screening assay to identify agonists of the transient receptor potential channel ML3 (TRPML3). [Related pubchem assays: 1424, 1448 ]; format: functional
Nonstructural protein 1 = Nonstructural protein 1 (Influenza A virus, UniProt Q194T2); format: functional, Influenza A virus (A/California/07/2009(H1N1))
[7] = target: T1, Ubiquitin-conjugating enzyme E2 N (Homo sapiens, UniProt P61088); format: functional
T1 sequence (P61088 whole entry): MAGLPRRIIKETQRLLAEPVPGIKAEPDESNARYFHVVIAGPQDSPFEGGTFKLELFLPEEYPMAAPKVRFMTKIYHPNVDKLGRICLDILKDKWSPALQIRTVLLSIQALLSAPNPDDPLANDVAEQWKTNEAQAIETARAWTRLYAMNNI

[8] = target: T1, Ubiquitin-conjugating enzyme E2 N; format: functional; remark: listed apart in the source
Bcl-2-related protein A1 = target: T2, Bcl-2-related protein A1 (Mus musculus, UniProt Q07440); format: functional;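 also: confirmatory dose–response counterscreen on Bfl-1, used to check hits from a UBC13 polyubiquitin inhibitor campaign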
T2 sequence (Q07440 whole entry): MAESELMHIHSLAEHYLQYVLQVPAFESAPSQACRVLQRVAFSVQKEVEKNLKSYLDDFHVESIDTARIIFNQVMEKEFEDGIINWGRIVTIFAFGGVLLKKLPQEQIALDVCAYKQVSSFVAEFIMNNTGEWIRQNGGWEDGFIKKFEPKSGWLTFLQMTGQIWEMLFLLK

[9] = target: Peroxisome proliferator-activated receptor gamma/Nuclear receptor coactivator 1 (Homo sapiens, UniProt P37231); experiment: (§1) TR-FRET dose response biochemical High Throughput Screening assay for agonists of the steroid receptor coactivator 1 (SRC-1) recruitment by the peroxisome proliferator-activated receptor gamma (PPAR gamma): non-selective agonists. [Related pubchem assays (depositor defined):AID1300, AID1808, AID504735, AID631]; format: protein assay
[10] = target: Peroxisome proliferator-activated receptor gamma/Nuclear receptor coactivator 3 (Homo sapiens, UniProt P37231); experiment: as §1, with “3 (SRC-3)” for “1 (SRC-1)”, “assays: 1301 (Confirmation screen.), 1048 (Primary screen.)]” for “assays (depositor defined):AID1300, AID1808, AID504735, AID631]”; format: functional
[11] = target: Peroxisome proliferator-activated receptor gamma/Nuclear receptor coactivator 2 (Homo sapiens, UniProt P37231); experiment: TR-FRET dose response biochemical High Throughput Screening assay for agonists of the steroid receptor coactivator 2 (SRC-2) recruitment by the peroxisome proliferator-activated receptor gamma (PPAR gamma): non-selective agonists. [Related pubchem assays: 1297, 1032 ]; format: functional

For Oc1ccccc1/N=N/c1ccccc1O, the EC50 [1] was 1.09 µM (active), the EC50 [2] was 0.929 µM (inconclusive) and the EC50 [3] was 1.7 µM (active). The EC50 [4] was 0.399 µM (inconclusive), the EC50 [5] was 1.36 µM (active) and the EC50 [6] was 1.77 µM (inconclusive).
In the case of CCN1C(=O)/C(=C/C=C2\N(CC)c3cc(S(=O)(=O)N(C)C)ccc3N2c2ccccc2)SC1=S, the EC50 (Ion channel NompC) is reported as 1.62 µM (active), the EC50 (Mucolipin-3) is reported as > 29.9 µM (not active) and the IC50 (Nonstructural protein 1) is reported as 55.3 µM (active).
With CCOc1ccc(-c2csc(NC(=O)c3cccc(N4C(=O)CCC4=O)c3)n2)cc1 the IC50 [7] was 15.7 µM (active), the IC50 [8] was > 20 µM (inactive) and the IC50 (Bcl-2-related protein A1) was > 20 µM (inactive).
In the case of COCCNc1nc2ccccc2nc1NS(=O)(=O)c1ccc(C)cc1C, the EC50 [9] is reported as > 79.4 µM (inactive), the EC50 [10] is reported as > 79.4 µM (not active) and the EC50 [11] is reported as > 79.4 µM (not active).

Source: ChEMBL document CHEMBL1201862, “PubChem BioAssay data set” (2004)
